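The compound was tested at five concentrations on cells cultured in 96-well plates, with a 48-hour exposure period. GI50: concentration for 50% inhibition of growth.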 Calls of active or inactive are those of the source. No stated cut-off is given here; in the data, active = GI50 up to about 1.1 µM and inactive = higher.
How the values were obtained:
Assay in all cases: NCI tumour cell line growth inhibition, 48 h
UACC-62 = system: UACC-62
DMS-114 = system: DMS-114
Malme-3M = system: Malme-3M
M19-MEL = system: M19-MEL
HOP-18 = system: HOP-18
NCI-H460 = system: NCI-H460
SW-620 = system: SW-620
KM-20L2 = system: KM-20L2
RXF 393 = system: RXF 393
OVCAR-3 = system: OVCAR-3
HOP-62 = system: HOP-62
SK-MEL-28 = system: SK-MEL-28
HL-60 = system: HL-60
K562 = system: K562
NCI/ADR-RES = system: NCI/ADR-RES
KM12 = system: KM12
CCRF-CEM = system: CCRF-CEM
HCC 2998 = system: HCC 2998
OVCAR-5 = system: OVCAR-5
NCI-H522 = system: NCI-H522

SMILES	GI50 (UACC-62)	GI50 (DMS-114)	GI50 (Malme-3M)	GI50 (M19-MEL)	GI50 (HOP-18)	GI50 (NCI-H460)	GI50 (SW-620)	GI50 (KM-20L2)	GI50 (RXF 393)	GI50 (OVCAR-3)	GI50 (HOP-62)	GI50 (SK-MEL-28)	GI50 (HL-60)	GI50 (K562)	GI50 (NCI/ADR-RES)	GI50 (KM12)	GI50 (CCRF-CEM)	GI50 (HCC 2998)	GI50 (OVCAR-5)	GI50 (NCI-H522)
COc1ccc(C2C(C(=O)O)=C(CO)Oc3cc4c(cc32)OCO4)cc1 (stereo unspecified)	> 100 µM (inactive)	> 100 µM (inactive)	> 100 µM (inactive)	> 100 µM (inactive)	> 100 µM (inactive)	> 100 µM (inactive)	> 100 µM (inactive)	> 100 µM (inactive)	> 100 µM (inactive)	> 100 µM (inactive)	32.5 µM (inactive)	> 100 µM (inactive)								
O=c1[nH]nc(NCc2ccccc2)c2nnn(Cc3ccccc3)c12			> 100 µM (inactive)			> 100 µM (inactive)				> 100 µM (inactive)	> 100 µM (inactive)	> 100 µM (inactive)	> 100 µM (inactive)	> 100 µM (inactive)	> 100 µM (inactive)	> 100 µM (inactive)	> 100 µM (inactive)	> 100 µM (inactive)	> 100 µM (inactive)	
NC(CCOCCP(=O)(O)O)C(=O)O (stereo unspecified)	56.5 µM (inactive)					> 100 µM (inactive)	> 100 µM (inactive)		> 100 µM (inactive)	> 100 µM (inactive)		> 100 µM (inactive)	> 100 µM (inactive)	> 100 µM (inactive)	> 100 µM (inactive)	> 100 µM (inactive)	> 100 µM (inactive)	> 100 µM (inactive)	> 100 µM (inactive)	> 100 µM (inactive)
Cc1n[nH]c(N)c1C(N)=O	> 100 µM (inactive)	> 100 µM (inactive)	> 100 µM (inactive)		< 0.01 µM (active)		> 100 µM (inactive)	> 100 µM (inactive)	21.5 µM (inactive)			> 100 µM (inactive)	> 100 µM (inactive)	> 100 µM (inactive)		> 100 µM (inactive)	> 100 µM (inactive)	> 100 µM (inactive)	> 100 µM (inactive)	> 100 µM (inactive)
O=C1NC(=O)C2(CCc3ccc(N(CCCl)CCCl)cc32)N1 (stereo unspecified)	4.33 µM (inactive)	10.9 µM (inactive)		14.1 µM (inactive)	20.2 µM (inactive)	3.98 µM (inactive)	18.2 µM (inactive)	19.5 µM (inactive)	6.7 µM (inactive)	18.4 µM (inactive)	9.91 µM (inactive)	17.5 µM (inactive)	1.65 µM (inactive)	19.8 µM (inactive)	9.77 µM (inactive)	29.3 µM (inactive)	1.41 µM (inactive)	15.9 µM (inactive)	13.2 µM (inactive)	5.26 µM (inactive)
CC1C(O)[C@@]2(OC[C@@]34C(=O)CC5(O)[C@H](CCC6Cc7nc8c(nc7C[C@]65C)CC5CC[C@@H]6C7=C[C@H]9O[C@@]%10(O[C@@](C)(CO)C[C@@H]%10O)C(C)[C@@]9(O)[C@]7(C)[C@@H](O)CC6[C@]5(C)C8)C3=CC[C@H]4C2C)OC1(C)C (stereo partly specified)	< 0.000355 µM (active)	< 0.000355 µM (active)	0.00287 µM (active)	0.442 µM (active)	0.849 µM (active)	< 0.000355 µM (active)	0.000385 µM (active)	0.000796 µM (active)	< 0.000355 µM (active)	1.26 µM (inactive)	< 0.000355 µM (active)		< 0.000355 µM (active)	< 0.000355 µM (active)	> 3.55 µM (inactive)	> 3.55 µM (inactive)	< 0.000355 µM (active)	0.548 µM (active)	0.00211 µM (active)	0.00308 µM (active)
